Laboratory results published in patent publication US20230150974A1 (Foghorn Therapeutics Inc., priority 2020, published 2023).

Key:
[1] = target: T1, HiBit-BRG1 (Homo sapiens, UniProt P51532); experiment: HiBit-BRG1 cell-based degradation assay (Nano-Glo HiBiT Lytic Detection); settings: HeLa cells expressing HiBit-BRG1 and LgBit, 24 h; for DC50: read-out: BRG1 HiBit Degradation IC50; for Dmax: read-out: BRG1 HiBit Degradation Maximum (%)
T1 construct: expressed in transfected cells
Outline: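 Luminescence from reconstituted NanoBiT luciferase after lytic detection served as read-out of remaining HiBit-BRG1 in stable HeLa cells, which also express LgBit. Cells were seeded at 5000 per well and incubated with compound for 24 h. DMSO and a 2 μM known degrader defined the control range.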

[2] = target: T2, HiBiT-BRM (Homo sapiens, UniProt P51531); experiment: HiBiT-BRM cell-based degradation assay (Nano-Glo HiBiT Lytic Detection); settings: HeLa cells expressing HiBiT-BRM, 24 h; for DC50: read-out: BRM HiBit Degradation IC50
T2 construct: expressed in transfected cells
Outline: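 HeLa cells stably expressing HiBiT-tagged BRM were treated for 24 h, then lysed with LgBiT-containing Nano-Glo reagent and luminescence read. % degradation scaled between DMSO (high control) and 2 μM reference BRM/BRG1 degrader (low control).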

T2 sequence (P51531 whole entry): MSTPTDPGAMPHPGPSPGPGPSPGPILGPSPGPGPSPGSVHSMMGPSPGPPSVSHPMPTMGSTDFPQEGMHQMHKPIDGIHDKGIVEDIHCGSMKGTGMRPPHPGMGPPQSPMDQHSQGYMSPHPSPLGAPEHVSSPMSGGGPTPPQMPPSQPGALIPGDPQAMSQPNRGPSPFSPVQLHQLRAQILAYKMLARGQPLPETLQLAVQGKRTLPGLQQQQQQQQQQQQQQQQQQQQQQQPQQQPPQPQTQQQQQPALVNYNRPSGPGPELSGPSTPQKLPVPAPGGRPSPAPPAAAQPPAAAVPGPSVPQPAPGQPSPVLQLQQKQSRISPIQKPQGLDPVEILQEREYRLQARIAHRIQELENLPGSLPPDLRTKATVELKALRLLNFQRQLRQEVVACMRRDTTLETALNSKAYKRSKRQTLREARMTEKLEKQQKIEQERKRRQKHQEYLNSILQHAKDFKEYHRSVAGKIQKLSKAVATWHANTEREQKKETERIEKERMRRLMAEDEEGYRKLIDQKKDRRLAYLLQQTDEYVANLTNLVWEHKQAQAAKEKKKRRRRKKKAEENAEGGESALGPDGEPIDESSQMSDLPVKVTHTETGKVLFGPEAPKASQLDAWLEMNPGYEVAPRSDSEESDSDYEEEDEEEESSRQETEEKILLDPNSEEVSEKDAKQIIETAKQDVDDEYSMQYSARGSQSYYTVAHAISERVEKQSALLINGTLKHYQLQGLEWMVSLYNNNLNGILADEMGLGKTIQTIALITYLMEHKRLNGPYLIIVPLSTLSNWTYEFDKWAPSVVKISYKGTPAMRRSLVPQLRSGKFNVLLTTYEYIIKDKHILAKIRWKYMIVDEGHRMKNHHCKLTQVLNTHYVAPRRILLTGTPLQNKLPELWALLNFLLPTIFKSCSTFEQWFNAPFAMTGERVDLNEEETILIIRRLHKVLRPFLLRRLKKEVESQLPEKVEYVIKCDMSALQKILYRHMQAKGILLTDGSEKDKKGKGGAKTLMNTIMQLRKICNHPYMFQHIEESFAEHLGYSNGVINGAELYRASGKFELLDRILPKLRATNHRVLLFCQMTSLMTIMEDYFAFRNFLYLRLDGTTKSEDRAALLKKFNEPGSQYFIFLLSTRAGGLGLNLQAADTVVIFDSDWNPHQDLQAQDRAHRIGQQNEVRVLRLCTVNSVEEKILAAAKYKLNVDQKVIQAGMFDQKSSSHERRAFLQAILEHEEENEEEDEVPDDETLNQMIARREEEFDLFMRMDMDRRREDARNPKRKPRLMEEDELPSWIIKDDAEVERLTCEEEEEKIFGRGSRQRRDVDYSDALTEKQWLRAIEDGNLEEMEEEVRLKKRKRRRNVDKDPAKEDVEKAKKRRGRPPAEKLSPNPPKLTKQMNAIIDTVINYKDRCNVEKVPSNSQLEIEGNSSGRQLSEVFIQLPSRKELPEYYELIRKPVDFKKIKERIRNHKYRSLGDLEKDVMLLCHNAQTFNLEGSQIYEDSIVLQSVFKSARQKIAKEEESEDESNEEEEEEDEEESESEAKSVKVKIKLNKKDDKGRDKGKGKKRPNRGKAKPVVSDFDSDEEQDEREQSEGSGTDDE
T1 sequence (P51532 whole entry): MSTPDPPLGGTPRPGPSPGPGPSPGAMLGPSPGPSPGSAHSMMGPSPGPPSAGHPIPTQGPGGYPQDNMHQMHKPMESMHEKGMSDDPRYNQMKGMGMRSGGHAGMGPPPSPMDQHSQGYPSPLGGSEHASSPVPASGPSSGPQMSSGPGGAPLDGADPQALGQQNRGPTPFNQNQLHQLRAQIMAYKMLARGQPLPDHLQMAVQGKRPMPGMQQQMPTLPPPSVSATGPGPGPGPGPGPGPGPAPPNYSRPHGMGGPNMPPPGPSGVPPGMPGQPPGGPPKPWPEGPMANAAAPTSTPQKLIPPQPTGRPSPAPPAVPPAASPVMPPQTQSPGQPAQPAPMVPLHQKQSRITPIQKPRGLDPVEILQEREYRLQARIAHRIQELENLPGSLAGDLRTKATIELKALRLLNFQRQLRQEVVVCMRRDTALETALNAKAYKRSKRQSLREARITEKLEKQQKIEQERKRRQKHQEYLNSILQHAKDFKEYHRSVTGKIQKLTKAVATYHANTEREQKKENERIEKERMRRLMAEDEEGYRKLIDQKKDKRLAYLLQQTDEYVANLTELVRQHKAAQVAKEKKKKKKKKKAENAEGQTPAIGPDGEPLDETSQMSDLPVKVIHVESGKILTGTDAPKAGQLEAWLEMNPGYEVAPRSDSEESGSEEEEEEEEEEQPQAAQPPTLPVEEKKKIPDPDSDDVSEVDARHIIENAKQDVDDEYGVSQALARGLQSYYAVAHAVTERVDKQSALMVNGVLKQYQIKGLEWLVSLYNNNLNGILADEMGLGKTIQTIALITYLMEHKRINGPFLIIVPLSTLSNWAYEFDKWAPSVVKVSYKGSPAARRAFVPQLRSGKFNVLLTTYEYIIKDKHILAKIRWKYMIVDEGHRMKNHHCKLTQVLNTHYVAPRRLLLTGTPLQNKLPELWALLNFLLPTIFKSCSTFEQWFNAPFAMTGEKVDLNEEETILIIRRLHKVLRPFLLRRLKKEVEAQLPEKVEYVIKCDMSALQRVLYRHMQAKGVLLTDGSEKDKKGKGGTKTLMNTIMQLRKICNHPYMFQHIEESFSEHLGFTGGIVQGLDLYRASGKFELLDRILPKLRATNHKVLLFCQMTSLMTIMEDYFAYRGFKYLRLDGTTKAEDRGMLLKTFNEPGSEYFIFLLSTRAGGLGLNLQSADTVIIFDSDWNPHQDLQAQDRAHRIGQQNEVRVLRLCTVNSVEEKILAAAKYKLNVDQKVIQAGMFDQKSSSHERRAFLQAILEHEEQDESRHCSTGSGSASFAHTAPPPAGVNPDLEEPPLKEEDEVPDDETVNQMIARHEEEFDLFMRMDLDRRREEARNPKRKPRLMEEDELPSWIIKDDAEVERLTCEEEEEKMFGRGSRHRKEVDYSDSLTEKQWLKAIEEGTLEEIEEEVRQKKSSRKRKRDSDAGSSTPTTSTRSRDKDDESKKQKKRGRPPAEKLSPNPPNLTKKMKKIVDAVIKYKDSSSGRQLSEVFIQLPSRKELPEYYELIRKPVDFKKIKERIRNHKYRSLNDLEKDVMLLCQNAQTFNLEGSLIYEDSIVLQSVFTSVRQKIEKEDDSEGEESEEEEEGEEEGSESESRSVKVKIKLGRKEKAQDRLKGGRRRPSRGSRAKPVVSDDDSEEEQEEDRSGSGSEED

SMILES	DC50 [1]	Dmax [1]	DC50 [2]	BRM HiBit Degradation Maximum (%) [2]
Nc1nnc(-c2ccccc2O)cc1OCCc1ccc(CNC(=O)CCCCCOc2cccc3c2C(=O)N(C2CCC(=O)NC2=O)C3=O)cc1 (stereo not drawn) [Compound 63, N-[[4-(2-[[3-amino-6-(2-hydroxyphenyl)pyridazin-4-yl]oxy]ethyl)phenyl]methyl]-6-[[2-(2,6-dioxopiperidin-3-yl)-1,3-dioxoisoindol-4-yl]oxy]hexanamide]	> 1 µM	< 50%	> 0.1 µM	B (“B” indicates maximum degradation ≥50%)
Cc1ncsc1-c1ccc([C@H](C)NC(=O)[C@@H]2C[C@@H](O)CN2C(=O)[C@@H](c2cc(OCCN3CCN(CCC(=O)NCc4ccc(CCOc5cc(-c6ccccc6O)nnc5N)cc4)CC3)no2)C(C)C)cc1 [Compound 175, (2S,4R)-1-[(2R)-2-[3-(2-[4-[2-([[4-(2-[[3-amino-6-(2-hydroxyphenyl)pyridazin-4-yl]oxy]ethyl)phenyl]methyl]carbamoyl)ethyl]piperazin-1-yl]ethoxy)-1,2-oxazol-5-yl]-3-methylbutanoyl]-4-hydroxy-N-[(1S)-1-[4-(4-methyl-1,3-thiazol-5-yl)phenyl]ethyl]pyrrolidine-2-carboxamide]	> 0.1 µM	> 50%	> 0.01 µM	A (“A” indicates maximum degradation ≥75%)
Cc1ncsc1-c1ccc([C@H](C)NC(=O)[C@@H]2C[C@@H](O)CN2C(=O)[C@@H](c2cc(OCCN3CC4CN(C(=O)c5ccc(CCOc6cc(-c7ccccc7O)nnc6N)cc5)C4C3)no2)C(C)C)cc1 (stereo partly drawn) [Compound 240, (2S,4R)-1-((2R)-2-(3-(2-(6-(4-(2-((3-amino-6-(2-hydroxyphenyl)pyridazin-4-yl)oxy)ethyl)benzoyl)-3,6-diazabicyclo[3.2.0]heptan-3-yl)ethoxy)isoxazol-5-yl)-3-methylbutanoyl)-4-hydroxy-N-((S)-1-(4-(4-methylthiazol-5-yl)phenyl)ethyl)pyrrolidine-2-carboxamide]	> 0.1 µM	> 75%	> 0.1 µM	A (“A” indicates maximum degradation ≥75%)
Nc1nnc(-c2ccccc2O)cc1OCCc1ccc(CNC(=O)CCCCCCCCNc2ccc3c(c2)C(=O)N(C2CCC(=O)NC2=O)C3=O)cc1 (stereo not drawn) [Compound 73, N-(4-(2-((3-amino-6-(2-hydroxyphenyl)pyridazin-4-yl)oxy)ethyl)benzyl)-9-((2-(2,6-dioxopiperidin-3-yl)-1,3-dioxoisoindolin-5-yl)amino)nonanamide]	> 1 µM	< 50%	> 1 µM	C (“C” indicates maximum degradation <50%)
Cc1ncsc1-c1ccc(CNC(=O)[C@@H]2C[C@@H](O)CN2C(=O)[C@@H](NC(=O)CCN2C[C@H]3CC[C@@H](C2)N3C(=O)c2ccc(CCOc3cc(-c4ccccc4O)nnc3N)cc2)C(C)(C)C)cc1 [Compound 226, (2S,4R)-1-((2S)-2-(3-(8-(4-(2-((3-amino-6-(2-hydroxyphenyl)pyridazin-4-yl)oxy)ethyl)benzoyl)-3,8-diazabicyclo[3.2.1]octan-3-yl)propanamido)-3,3-dimethylbutanoyl)-4-hydroxy-N-(4-(4-methylthiazol-5-yl)benzyl)pyrrolidine-2-carboxamide]	> 1 µM	< 50%	> 1 µM	B (“B” indicates maximum degradation ≥50%)
Cc1ncsc1-c1ccc([C@H](C)NC(=O)[C@@H]2C[C@@H](O)CN2C(=O)[C@@H](c2cc(OCCN3[C@@H]4CC[C@H]3CN(C(=O)c3ccc(CCOc5cc(-c6ccccc6O)nnc5N)cc3)C4)no2)C(C)C)cc1 [Compound 221, (2S,4R)-1-[(2R)-2-[3-(2-[3-[4-(2-[[3-amino-6-(2-hydroxyphenyl)pyridazin-4-yl]oxy]ethyl)benzoyl]-3,8-diazabicyclo[3.2.1]octan-8-yl]ethoxy)-1,2-oxazol-5-yl]-3-methylbutanoyl]-4-hydroxy-N-[(1S)-1-[4-(4-methyl-1,3-thiazol-5-yl)phenyl]ethyl]pyrrolidine-2-carboxamide]	< 0.01 µM	> 75%	> 0.01 µM	A (“A” indicates maximum degradation ≥75%)

More lines, main results first:

DC50 [1]	Dmax [1]	DC50 [2]	SMILES	BRM HiBit Degradation Maximum (%) [2]
> 1 µM	< 50%	> 1 µM	Cc1ncsc1-c1ccc(CNC(=O)[C@@H]2C[C@@H](O)CN2C(=O)[C@@H](NC(=O)CCN2C[C@@H]3CN(C(=O)c4ccc(CCOc5cc(-c6ccccc6O)nnc5N)cc4)C[C@@H]3C2)C(C)(C)C)cc1 [Compound 203, (2S,4R)-1-((2S)-2-(3-(5-(4-(2-((3-amino-6-(2-hydroxyphenyl)pyridazin-4-yl)oxy)ethyl)benzoyl)hexahydropyrrolo[3,4-c]pyrrol-2(1H)-yl)propanamido)-3,3-dimethylbutanoyl)-4-hydroxy-N-(4-(4-methylthiazol-5-yl)benzyl)pyrrolidine-2-carboxamide]	B (“B” indicates maximum degradation ≥50%)
> 1 µM	< 50%	> 1 µM	Nc1nnc(-c2ccccc2O)cc1N1CCN(CC(=O)NCCCCS(=O)(=O)CCCNc2cccc3c2C(=O)N(C2CCC(=O)NC2=O)C3=O)CC1 (stereo not drawn) [Compound 80, 2-[4-[3-amino-6-(2-hydroxyphenyl)pyridazin-4-yl]piperazin-1-yl]-N-[4-(3-[[2-(2,6-dioxopiperidin-3-yl)-1,3-dioxoisoindol-4-yl]amino]propanesulfonyl)butyl]acetamide]	C (“C” indicates maximum degradation <50%)
> 1 µM	< 50%	> 1 µM	Nc1nnc(-c2ccccc2O)cc1OCCc1ccc(CNCCN2CCN(c3cccc4c3C(=O)N(C3CCC(=O)NC3=O)C4=O)CC2=O)cc1 (stereo not drawn) [Compound 153, 4-(4-(2-((4-(2-((3-amino-6-(2-hydroxyphenyl)pyridazin-4-yl)oxy)ethyl)benzyl)amino)ethyl)-3-oxopiperazin-1-yl)-2-(2,6-dioxopiperidin-3-yl)isoindoline-1,3-dione]	C (“C” indicates maximum degradation <50%)
> 1 µM	< 50%	> 1 µM	Cc1ncsc1-c1ccc(CNC(=O)[C@@H]2C[C@@H](O)CN2C(=O)[C@@H](NC(=O)COCCOCCOCCOCCOCCNC(=O)c2ccc(CCOc3cc(-c4ccccc4O)nnc3N)cc2)C(C)(C)C)cc1 [Compound 167, (2S,4R)-1-((S)-1-(4-(2-((3-amino-6-(2-hydroxyphenyl)pyridazin-4-yl)oxy)ethyl)phenyl)-21-(tert-butyl)-1,19-dioxo-5,8,11,14,17-pentaoxa-2,20-diazadocosan-22-oyl)-4-hydroxy-N-(4-(4-methylthiazol-5-yl)benzyl)pyrrolidine-2-carboxamide]	B (“B” indicates maximum degradation ≥50%)
> 1 µM	< 50%	> 1 µM	Nc1nnc(-c2ccccc2O)cc1OCCc1ccc(C(=O)NCCCCCCC(=O)NCc2ccc(S(=O)(=O)Nc3cccc4c(Cl)c[nH]c34)cc2)cc1 [Compound 13, 7-[[4-(2-[[3-amino-6-(2-hydroxyphenyl)pyridazin-4-yl]oxy]ethyl)phenyl]formamido]-N-([4-[(3-chloro-1H-indol-7-yl)sulfamoyl]phenyl]methyl)heptanamide]	C (“C” indicates maximum degradation <50%)
> 1 µM	< 50%	> 1 µM	Nc1nnc(-c2ccccc2O)cc1OCCc1ccc(CNC(=O)CCCCCCCCCCNc2ccc3c(c2)C(=O)N(C2CCC(=O)NC2=O)C3=O)cc1 (stereo not drawn) [Compound 66]	C (“C” indicates maximum degradation <50%)
> 1 µM	< 50%	> 0.01 µM	Cc1ncsc1-c1ccc([C@H](C)NC(=O)[C@@H]2C[C@@H](O)CN2C(=O)[C@@H](NC(=O)CCCCCCCCCCCCCCNC(=O)c2ccc(CCOc3cc(-c4ccccc4O)nnc3N)cc2)C(C)(C)C)cc1 [Compound 254, (2S,4R)-1-((S)-2-(15-(4-(2-((3-amino-6-(2-hydroxyphenyl)pyridazin-4-yl)oxy)ethyl)benzamido)pentadecanamido)-3,3-dimethylbutanoyl)-4-hydroxy-N-((S)-1-(4-(4-methylthiazol-5-yl)phenyl)ethyl)pyrrolidine-2-carboxamide]	B (“B” indicates maximum degradation ≥50%)
> 1 µM	< 50%	> 1 µM	Nc1nnc(-c2ccccc2O)cc1OCCc1ccc(C(=O)NCCCCCCCCCC(=O)NCc2ccc(S(=O)(=O)Nc3cccc4c(Cl)c[nH]c34)cc2)cc1 [Compound 12, 10-[[4-(2-[[3-amino-6-(2-hydroxyphenyl)pyridazin-4-yl]oxy]ethyl)phenyl]formamido]-N-([4-[(3-chloro-1H-indol-7-yl)sulfamoyl]phenyl]methyl)decanamide]	C (“C” indicates maximum degradation <50%)
> 1 µM	< 50%	> 1 µM	Nc1nnc(-c2ccccc2O)cc1OCCc1ccc(C(=O)NCCCCCCCCCCCCCCC(=O)NCc2ccc(S(=O)(=O)Nc3cccc4c(Cl)c[nH]c34)cc2)cc1 [Compound 6, 15-[[4-(2-[[3-amino-6-(2-hydroxyphenyl)pyridazin-4-yl]oxy]ethyl)phenyl]formamido]-N-([4-[(3-chloro-1H-indol-7-yl)sulfamoyl]phenyl]methyl)pentadecanamide]	C (“C” indicates maximum degradation <50%)
